Experimental data as given in article PMC5298231, “The Malaria Parasite's Lactate Transporter PfFNT Is the Target of Antiplasmodial Compounds Identified in Whole Cell Phenotypic Screens” (PLoS Pathogens, 2017).
Like-named read-outs stand apart in the source and are kept apart here.

Test system: erythrocytes infected with 3D7 trophozoites
Format: cell-based, Plasmodium falciparum

## COc1ccc2c(c1)OC(O)(C(F)(F)C(F)(F)F)CC2=O (stereo not shown) [MMV007839]
6 μM
  Intracellular NADH level, treated vs untreated: decreased
  Intracellular orotate level, treated vs untreated: decreased
  Intracellular orotidine-5-phosphate level, treated vs untreated: decreased
  Intracellular pyruvate level, treated vs untreated: significant elevation
  Intracellular sn-glycerol-3-phosphate level, treated vs untreated: significant elevation
6 μM, at each time point (1 h, 3 h, 6 h)
  Increase in lactate abundance in treated relative to untreated infected erythrocytes: 6 fold
1hr
  1-3 (2-3)-Bisphopshateglycerate, Average: 0.8283
  2-Hydroxyglutarate, Average: -0.2432
  2-Ketoglutarate, Average: -0.436
  3-Phoshoglycerate, Average: 0.004248
  3-Phospho-serine, Average: -0.2778
  4-Aminobutanoate, Average: 1.193
  5-Phosphoribosyl-Pyrophosphate, Average: 0.3507
  6-Phosphogluconate, Average: -0.04985
  ADP, Average: -0.09347
  AMP, Average: 0.1805
  ATLS, Average: 0.06136
  ATP, Average: -0.05715
  Acetyl-CoA, Average: -0.4647
  Acetyl-L-alanine, Average: 0.1907
  Adenine, Average: -0.6208
  Arginine, Average: 0.574
  Asparagine, Average: 0.04802
  Aspartate, Average: 0.001665
  CDP, Average: -0.01089
  CDP-ethanolamine, Average: 0.2765
  CMP, Average: 0.1684
  CTP, Average: -0.2804
  Cholesteryl sulfate, Average: -0.2972
  Citrate, Average: -0.1229
  CoA, Average: -0.4384
  Cyclic AMP, Average: -0.8135
  Cytidine, Average: -0.7749
  DALT, Average: -0.5028
  DEVG, Average: 0.001555
  DGLA, Average: -0.4525
  DLS, Average: -0.423
  Deoxycytidine, Average: 1.92
  Dihydroorotate, Average: -0.5278
  ESFG, Average: 0.4045
  EVGG, Average: 0.01776
  Erythrose 4-Phosphate, Average: -0.3514
  FAD, Average: -0.08791
  FMN, Average: -0.2425
  Farnesyl diphosphate, Average: -0.0002912
  Folate, Average: -0.2316
  Fructose-1-6-Bisphosphate, Average: 1.122
  Fructose-6-Phosphate, Average: 0.08818
  GDP, Average: -0.6846
  GDP-mannose, Average: 0.01571
  GMP, Average: -1.125
  GTP, Average: -0.5732
  Geranylgeranyl pyrophosphate, Average: -0.5786
  Glucono-1-4-Lactone, Average: 1.593
  Glucose-6-Phosphate, Average: -0.1863
  Glutamate, Average: 0.1005
  Glutamine, Average: 0.7703
  Glutathione Disulfide, Average: 0.1943
  Glutathione, Average: -0.1919
  Glyceraldehyde 3-Phosphate, Average: -0.7606
  Glycerone Phosphate, Average: 0.5926
  HLD, Average: -0.3486
  HVDD, Average: -0.6691
  Histidine, Average: 0.5758
  Homoserine, Average: 0.3097
  Hydroxy-L-proline, Average: 0.2443
  Hypoxanthine, Average: 0.3704
  IDP, Average: -0.1758
  IMP, Average: -0.02277
  Inosine, Average: 0.5137
  Isoleucine, Average: 0.3056
  LD, Average: 0.3825
  Lactate, Average: 2.358
  Leucine, Average: 0.1553
  Lysine, Average: 1.68
  Malate, Average: 0.1358
  Mannitol, Average: 0.0108
  Methionine, Average: 0.2615
  Myristic acid, Average: 0.2261
  N-Acetyl-glutamate, Average: -0.007377
  N-Carbamoyl-L-Aspartate, Average: -1.378
  NAD+, Average: 0.03204
  NADH, Average: -1.36
  NADP+, Average: -0.2617
  Ornithine, Average: 0.2172
  Orotate, Average: -1.216
  Orotidine 5-Phosphate, Average: -1.5
  Orotidine, Average: -0.4366
  PAEF, Average: -0.4364
  PD, Average: 0.2765
  PDAV, Average: 0.344
  PE, Average: 1.21
  PEE, Average: 0.2418
  PHF, Average: 1.069
  PPVQ, Average: 0.02129
  PVNF, Average: -0.3384
  PVQ, Average: 0.8749
  PVQA, Average: -0.7385
  Pantothenate, Average: -0.01312
  Phenylalanine, Average: 0.1979
  Phosphoenolpyruvate, Average: 0.299
  Pipecolate, Average: 0.4539
  Proline, Average: 0.1646
  Pyridoxine, Average: 0.1656
  Pyruvate, Average: 1.42
  Ribose-5-Phosphate, Average: 0.9115
  S-Adenosyl-L-homocysteine, Average: -0.1282
  SDGLA, Average: -0.148
  SFGD, Average: -0.0354
  Sedoheptulose-1/7-Phosphate, Average: 0.1578
  Serine, Average: 0.004434
  Succinate Semialdehyde, Average: -0.3802
  Succinate, Average: 0.4975
  TNVK, Average: -0.9736
  Threonine, Average: 0.4202
  Tryptophan, Average: 0.09509
  Tyrosine, Average: 0.1697
  UDP, Average: -0.1565
  UDP-N-acetyl-D-glucosamine, Average: 0.0845
  UDP-glucose, Average: -0.08513
  UMP, Average: -0.3602
  Uracil, Average: -0.4869
  Valine, Average: 0.1364
  Xanthine, Average: 0.3309
  dADP, Average: -0.3244
  dATP, Average: 0.05147
  dCDP, Average: 0.3024
  dGMP, Average: 0.08489
  dTMP, Average: -0.02247
  dTTP, Average: 0.2046
  dUMP, Average: 1.26
  myo-Inositol, Average: -0.07002
  sn-Glycerol 3-Phosphate, Average: 1.379
  sn-glycero-3-Phospho-1-inositol, Average: -0.128
3hr
  1-3 (2-3)-Bisphopshateglycerate, Average: 0.8355
  2-Hydroxyglutarate, Average: -0.6103
  2-Ketoglutarate, Average: -0.8232
  3-Phoshoglycerate, Average: 0.07426
  3-Phospho-serine, Average: -0.4035
  4-Aminobutanoate, Average: 0.8488
  5-Phosphoribosyl-Pyrophosphate, Average: 0.5077
  6-Phosphogluconate, Average: -0.2282
  ADP, Average: -0.7166
  AMP, Average: -0.5704
  ATLS, Average: -0.2347
  ATP, Average: -0.2177
  Acetyl-CoA, Average: -0.7235
  Acetyl-L-alanine, Average: -0.3599
  Adenine, Average: -0.8446
  Arginine, Average: 0.2396
  Asparagine, Average: -0.1753
  Aspartate, Average: -0.3736
  CDP, Average: -0.5752
  CDP-ethanolamine, Average: 0.02366
  CMP, Average: -0.08882
  CTP, Average: -0.3119
  Cholesteryl sulfate, Average: -0.1335
  Citrate, Average: -0.1028
  CoA, Average: -0.556
  Cyclic AMP, Average: -0.7854
  Cytidine, Average: -0.2914
  DALT, Average: -0.8981
  DEVG, Average: -0.08263
  DGLA, Average: -0.7349
  DLS, Average: -0.6175
  Deoxycytidine, Average: 1.594
  Dihydroorotate, Average: -1.064
  ESFG, Average: -0.07747
  EVGG, Average: -0.1694
  Erythrose 4-Phosphate, Average: -0.2579
  FAD, Average: -0.4239
  FMN, Average: -0.4985
  Farnesyl diphosphate, Average: -0.04123
  Folate, Average: -0.3602
  Fructose-1-6-Bisphosphate, Average: 1.146
  Fructose-6-Phosphate, Average: 0.05598
  GDP, Average: -1.202
  GDP-mannose, Average: -0.4414
  GMP, Average: -1.665
  GTP, Average: -0.7051
  Geranylgeranyl pyrophosphate, Average: -0.6827
  Glucono-1-4-Lactone, Average: 1.992
  Glucose-6-Phosphate, Average: -0.3489
  Glutamate, Average: -0.07518
  Glutamine, Average: 0.8027
  Glutathione Disulfide, Average: -0.1266
  Glutathione, Average: -0.02749
  Glyceraldehyde 3-Phosphate, Average: -0.5897
  Glycerone Phosphate, Average: 0.4029
  HLD, Average: -0.9223
  HVDD, Average: -1.392
  Histidine, Average: 0.6908
  Homoserine, Average: 0.249
  Hydroxy-L-proline, Average: 0.1081
  Hypoxanthine, Average: 0.2683
  IDP, Average: 0.1036
  IMP, Average: -0.04113
  Inosine, Average: 0.2492
  Isoleucine, Average: 0.01345
  LD, Average: 0.008648
  Lactate, Average: 2.632
  Leucine, Average: -0.1293
  Lysine, Average: 0.8307
  Malate, Average: -0.2233
  Mannitol, Average: -0.2308
  Methionine, Average: -0.1652
  Myristic acid, Average: -0.3456
  N-Acetyl-glutamate, Average: -0.8123
  N-Carbamoyl-L-Aspartate, Average: -1.502
  NAD+, Average: 0.03216
  NADH, Average: -1.72
